Data on eleven compounds can be found in patent US20240287082A1, “NEW BENZODIAZEPINE DERIVATIVES AS GABA A GAMMA1 PAM” (Hoffmann-La Roche Inc., priority 2021, published 2024).

pKi: −log10 of the molar value. Where two headings read alike, the source gives them in different places.

The target in assay [1] is human GABAA α5β2γ1 receptor (Homo sapiens (Human), UniProt P31644+Q8N1C3). Put plainly: Radioligand binding assay, competition for [3H]RO7239181, γ1-containing GABAA subtype α5β2γ1. The protocol:
The affinity of compounds at GABAA γ1 subunit-containing receptors was measured by competition for [^3H]RO7239181 (67.3 Ci/mmol; Roche) binding to membranes from HEK293F cells (ThermoFisher R^79007) expressing human (transiently transfected) receptors of composition α5β2γ1, α2β2γ1, α1β2γ1. For better protein expression of the α2 subunit-containing receptors, the 28 amino acid long signal peptide (Met1 to Ala28)of the human GABAA α2 subunit was substituted by the 31 amino acid long signal peptide (Met1 to Ser31) of human GABAA α5 subunit.
(§1) Harvested pellets from HEK293F cells expressing the different GABAA receptor subtypes were resuspended in Mannitol Buffer pH 7.2-7.4 (Mannitol 0.29M, Triethylamine 10 mM, Acetic acid 10 mM, EDTA 1 mM plus protease inhibitors (20 tablets Complete, Roche Diagnostics Cat. No. 05 056 489 001 per liter)), washed two times and then resuspended at 1:10 to 1:15 dilution in the same buffer. Cell disruption was performed by stirring the suspension in a Parr vessel #4637 at 435 psi for 15 minutes, and then the suspensions were centrifuged at 1000×g for 15 minutes at 4° C. (Beckman Avanti J-HC: rotor JS-4.2). The supernatant (S1) was transferred in a 21 Schott flask and the pellet (P1) was resuspended with Mannitol Buffer up to 175 ml. The resuspended pellet was transferred into a 250 ml Corning centrifugal beaker and centrifuged at 1500×g for 10 minutes at 4° C. (Beckman Avanti J-HC: rotor JS-4.2). The supernatant (S1) was then transferred in the 21 Schott flask and the pellet was discarded. The supernatants (S1) were centrifuged in 500 ml Beckman polypropylene centrifugal beaker at 15 000×g for 30 minutes at 4° C. (Beckman Avanti J-20 XP: rotor JLA-10.500). The pellet (P2) was resuspended with Mannitol Buffer 1:1 and frozen at −80° C. The supernatant (S2) was centrifuged in 100 ml Beckman polypropylene centrifugal tubes at 48000×g for 50 minutes at 4° C. (Beckman Avanti J-20 XP: rotor JA-18). The supernatant (S3) was discarded and the pellet (P3) was resuspended with 1:1 Mannitol Buffer. The P2 and P3 protein concentration was determined with the BIORAD Standard assay method with bovine serum albumin as standard and measured on the NANO-Drop 1000. The membrane suspension was aliquots (500 μl per tube) and stored at −80° C. until required.
(§2) Membrane homogenates were resuspended and polytronised (Polytron PT1200E Kinematica AG) in Potassium Phosphate 10 mM, KCl 100 mM binding buffer at pH 7.4 to a final assay concentration determined with a previous experiment.
Radioligand binding assays were carried out in a volume of 200 μL (96-well plates) which contained 100 μL of cell membranes, [3H]RO7239181 at a concentration of 1.5 nM (α5β2γ1) or 20-30 nM (α1β2γ1, α2β2γ1) and the test compound in the range of [0.3-1000]×10^−9 M. Nonspecific binding was defined by 10×10^−6 (α5β2γ1) and 30×10^−6 M RO7239181 and typically represented less than 5% (α5β2γ1) and less than 20% (α1β2γ1, α2β2γ1) of the total binding. Assays were incubated to equilibrium for 1 hour at 4° C. and then, membranes were filtered onto unifilter (96-well white microplate with bonded GF/C filters preincubated 20-50 minutes in 0.3% Polyethylenimine) with a Filtermate 196 harvester (Packard BioScience) and washed 4 times with cold Potassium Phosphate 10 mM pH 7.4, KCl 100 mM binding buffer. After anhydrousing, filter-retained radioactivity was detected by liquid scintillation counting. Ki values were calculated using Excel-Fit (Microsoft) and are the means of two determinations.

Assay [2] has as its target human GABAA α1β3γ2 receptor (Homo sapiens (Human), UniProt P14867+P18507). Put plainly: Radioligand binding assay, competition for [3H]Flumazenil, γ2-containing GABAA subtype α1β3γ2. Here is the method: The affinity of compounds at GABAA γ2 subunit-containing receptors was measured by competition for [^3H]Flumazenil (81.1 Ci/mmol; Roche) binding to HEK293F cells expressing human (transiently transfected) receptors of composition α1β3γ2.
Harvested pellets from HEK293F cells expressing the different GABAA γ2 receptor subtypes were resuspended in Mannitol Buffer pH 7.2-7.4 and processed as described above for the cells expressing the GABAA γ1 subunit-containing receptors.
Assays were incubated to equilibrium for 1 hour at 4° C. and harvested onto GF/C uni-filters (Packard) by filtration using a Packard harvester and washing with ice-cold wash buffer (50 mM Tris; pH 7.5). After anhydrousing, filter-retained radioactivity was detected by liquid scintillation counting. Ki values were calculated using Excel-Fit (Microsoft) and are the means of two determinations.

The target in assay [3] is human GABAA α2β2γ1 receptor (Homo sapiens (Human), UniProt P47869+Q8N1C3). Put plainly: Radioligand binding assay, competition for [3H]RO7239181, γ1-containing GABAA subtype α2β2γ1. The following applies: for γ2/γ1 Selectivity Ratio: Ki α1β3γ2 (nM)/Ki α2β2γ1 (nM); for LogSel: Log[Ki α1β3γ2 (nM)/Ki α2β2γ1 (nM)]. Here is the method:
The affinity of compounds at GABAA γ1 subunit-containing receptors was measured by competition for [^3H]RO7239181 (67.3 Ci/mmol; Roche) binding to membranes from HEK293F cells (ThermoFisher R^79007) expressing human (transiently transfected) receptors of composition α5β2γ1, α2β2γ1, α1β2γ1.
as §1, §2
Assays were incubated to equilibrium for 1 hour at 4° C. and then, membranes were filtered onto unifilter (96-well white microplate with bonded GF/C filters preincubated 20-50 minutes in 0.3% Polyethylenimine) with a Filtermate 196 harvester (Packard BioScience) and washed 4 times with cold Potassium Phosphate 10 mM pH 7.4, KCl 100 mM binding buffer. After anhydrousing, filter-retained radioactivity was detected by liquid scintillation counting. Ki values were calculated using Excel-Fit (Microsoft) and are the means of two determinations.

Where [4] appears, read: membranes of HEK293F cells, [3H]RO7239181 1.5 nM, mean of two determinations, read-out: Ki h-GABAA α5β2γ1.
Setting [5] is: HEK293F cell membranes, [3H]Flumazenil 1 nM, mean of two determinations, read-out: Ki h-GABAA α1β3γ2.
[6] abbreviates: Table 2, membranes of HEK293F cells, [3H]RO7239181, read-out: Ki h-GABAA α2β2γ1.
[7] abbreviates: membranes of HEK293F cells, [3H]RO7239181 20-30 nM, mean of two determinations, read-out: Ki h-GABAA α2β2γ1.
Setting [8] is: read-out: Ki h-GABAA α2β2γ1, Table 2, membranes of HEK293F cells, [3H]RO7239181.

With `CNC(=O)c1cn2c(nc1=O)[C@H](C)N=C(c1c(F)cccc1F)c1c-2ccc(C(F)(F)F)c1Cl` [Example 27, (5S)-8-chloro-7-(2,6-difluorophenyl)-N,5-dimethyl-3-oxo-9-(trifluoromethyl)-5H-pyrimido[1,2-a][1,4]benzodiazepine-2-carboxamide], the pKi was 8.21 in assay [1] (setting [4]), 5.05 in assay [2] (setting [5]), 7.51 in assay [3] (setting [6]) and 7.51 in assay [3] (setting [7]). Further, in assay [3], the “γ2/γ1 Selectivity Ratio” value was 292.9. Also, in assay [3], the LogSel came out at 2.47.
Consider `CCO/C=C/c1cn2c(nc1=O)CN=C(c1c(F)cccc1F)c1c-2ccc(Cl)c1Cl` [Example 22, 8,9-dichloro-7-(2,6-difluorophenyl)-2-[(E)-2-ethoxyvinyl]-5H-pyrimido[1,2-a][1,4]benzodiazepin-3-one], for which the negative logarithm of the Ki (pKi) in assay [1] (setting [4]) is 8.68; in assay [2] (setting [5]), 5.95; in assay [3] (setting [6]) it was 7.82; in assay [3] (setting [7]), 7.82. Also, in assay [3], the “γ2/γ1 Selectivity Ratio” value was 73.8. In assay [3], this compound registered a LogSel of 1.87.
For the compound `CCOCCc1cn2c(nc1=O)[C@H](C)N=C(c1c(F)cccc1F)c1c-2ccc(C(F)(F)F)c1Cl` [Example 20, (5S)-8-chloro-7-(2,6-difluorophenyl)-2-(2-ethoxyethyl)-5-methyl-9-(trifluoromethyl)-5H-pyrimido[1,2-a][1,4]benzodiazepin-3-one], the pKi was 8.18 in assay [1] (setting [4]), 5.05 in assay [2] (setting [5]), 7.00 in assay [3] (setting [6]) and 7.00 in assay [3] (setting [7]). For the same compound, the “γ2/γ1 Selectivity Ratio” value in assay [3] is reported as 88.1. Also, the LogSel in assay [3] amounted to 1.95.
For `C[C@@H]1N=C(c2c(F)cccc2F)c2c(ccc(Cl)c2Cl)-n2ccc(=O)nc21` [Example 4, (5S)-8,9-dichloro-7-(2,6-difluorophenyl)-5-methyl-5H-pyrimido[1,2-a][1,4]benzodiazepin-3-one], the pKi in assay [1] was 8.82; in assay [2], 6.04; in assay [3] it was 7.88; in assay [3] (setting [8]) it was 7.88. Also, in assay [3], the “γ2/γ1 Selectivity Ratio” value was 68.7. This compound showed a LogSel in assay [3] of 1.84.
With `CCO/C=C/c1cn2c(nc1=O)[C@H](C)N=C(c1c(F)cccc1F)c1c-2ccc(C(F)(F)F)c1Cl` [Example 18, (5S)-8-chloro-7-(2,6-difluorophenyl)-2-[(E)-2-ethoxyvinyl]-5-methyl-9-(trifluoromethyl)-5H-pyrimido[1,2-a][1,4]benzodiazepin-3-one], the pKi in assay [1] (setting [4]) was 8.01; in assay [2] (setting [5]) it was 5.20; in assay [3] (setting [6]) it was 7.22; in assay [3] (setting [7]), 7.22. Also, the “γ2/γ1 Selectivity Ratio” value in assay [3] stood at 104.6. This compound had a LogSel in assay [3] of 2.02.
Consider `CCOCCc1cn2c(nc1=O)CN=C(c1c(F)cccc1F)c1c-2ccc(C(F)(F)F)c1Cl` [Example 26, 8-chloro-7-(2,6-difluorophenyl)-2-(2-ethoxyethyl)-9-(trifluoromethyl)-5H-pyrimido[1,2-a][1,4]benzodiazepin-3-one], for which the pKi in assay [1] (setting [4]) is 7.67; in assay [2] (setting [5]) it was below 4.52; in assay [3] (setting [6]) it was 7.12; in assay [3] (setting [7]), 7.12. The “γ2/γ1 Selectivity Ratio” value in assay [3] came to 400.1. Besides, the LogSel in assay [3] was 2.60.
Consider `CCOCCc1cn2c(nc1=O)[C@H](C)N=C(c1c(F)cccc1F)c1c-2ccc(Cl)c1Cl` [Example 21, (5S)-8,9-dichloro-7-(2,6-difluorophenyl)-2-(2-ethoxyethyl)-5-methyl-5H-pyrimido[1,2-a][1,4]benzodiazepin-3-one], for which the pKi in assay [1] (setting [4]) is 8.47; in assay [2] (setting [5]), 5.84; in assay [3] (setting [6]) it was 7.63; in assay [3] (setting [7]), 7.63. For the same compound, the “γ2/γ1 Selectivity Ratio” value in assay [3] came to 61.6. This compound also came in with a LogSel in assay [3] of 1.79.
`CCO/C=C/c1cn2c(nc1=O)[C@H](C)N=C(c1c(F)cccc1F)c1c-2ccc(Cl)c1Cl` [Example 19, (5S)-8,9-dichloro-7-(2,6-difluorophenyl)-2-[(E)-2-ethoxyvinyl]-5-methyl-5H-pyrimido[1,2-a][1,4]benzodiazepin-3-one]: the pKi in assay [1] (setting [4]) was 8.31; in assay [2] (setting [5]), 5.93; in assay [3] (setting [6]), 7.62; in assay [3] (setting [7]) it was 7.62. The “γ2/γ1 Selectivity Ratio” value in assay [3] worked out at 48.4. This compound returned a LogSel in assay [3] of 1.68.
Regarding `CCO/C=C/c1cn2c(nc1=O)CN=C(c1c(F)cccc1F)c1c-2ccc(C(F)(F)F)c1Cl` [Example 25, 8-chloro-7-(2,6-difluorophenyl)-2-[(E)-2-ethoxyvinyl]-9-(trifluoromethyl)-5H-pyrimido[1,2-a][1,4]benzodiazepin-3-one], the pKi was 8.03 in assay [1] (setting [4]), 4.83 in assay [2] (setting [5]), 7.32 in assay [3] (setting [6]) and 7.32 in assay [3] (setting [7]). For the same compound, the “γ2/γ1 Selectivity Ratio” value in assay [3] is given as 306.4. This compound gave a LogSel in assay [3] of 2.49.
As to `CCOCCc1cn2c(nc1=O)CN=C(c1c(F)cccc1F)c1c-2ccc(Cl)c1Cl` [Example 24, 8,9-dichloro-7-(2,6-difluorophenyl)-2-(2-ethoxyethyl)-5H-pyrimido[1,2-a][1,4]benzodiazepin-3-one], the pKi was 8.52 in assay [1] (setting [4]), 5.74 in assay [2] (setting [5]), 7.52 in assay [3] (setting [6]) and 7.52 in assay [3] (setting [7]). Besides, the “γ2/γ1 Selectivity Ratio” value in assay [3] was determined as 60.1. Besides, in assay [3], the LogSel worked out at 1.78.
In the case of `O=c1ccn2c(n1)CN=C(c1c(F)cccc1F)c1c-2ccc(Cl)c1Cl` [Example 2, 8,9-dichloro-7-(2,6-difluorophenyl)-5H-pyrimido[1,2-a][1,4]benzodiazepin-3-one], the pKi was 8.96 in assay [1], 6.34 in assay [2], 8.01 in assay [3] and 8.01 in assay [3] (setting [8]). In addition, the “γ2/γ1 Selectivity Ratio” value in assay [3] came to 47.7. Moreover, the LogSel in assay [3] was 1.68.

As a reminder, the pKi is the negative decadic logarithm of the Ki, by convention in mol/L.
